GI50 and TGI data for nine compounds are collected here from PubChem BioAssay (NCI).

Test systems include 786-0 renal; ACHN renal; HT29 colon; IGROV1 ovarian; LOX IMVI melanoma; NCI-H226 lung; OVCAR-4 ovarian; SF-268 CNS; SK-MEL-28 melanoma; SNB-75 CNS.
Assay in all cases: growth of human tumour cells (NCI), 48 h

Molecules are shown by their SMILES.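 Growth conditions: 96-well plates. Treatment: test compound, 48 hours, 5 concentrations. Analysis: linear interpolation between bracketing concentrations; unreached endpoints set to highest concentration. Here, GI50 denotes the concentration required for 50% inhibition of growth. TGI denotes the concentration required for complete inhibition of growth.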

As for `CNc1nc(C)c(-c2nc(Nc3cccc(S(N)(=O)=O)c3)ncc2F)s1`, the GI50 in the experiment with 786-0 renal is 0.0248 µM; with ACHN renal it was 0.0266 µM; in the experiment on HT29 colon, 0.0605 µM; with IGROV1 ovarian, 0.0349 µM; with LOX IMVI melanoma, 0.0223 µM; with NCI-H226 lung, 0.0219 µM. Also, the GI50 is 0.0524 µM in the experiment on OVCAR-4 ovarian, 0.0287 µM with SF-268 CNS, 0.0319 µM in the experiment with SK-MEL-28 melanoma and 0.044 µM with SNB-75 CNS. For the same compound, the TGI in the experiment on 786-0 renal turned out to be 3.42 µM; in the experiment on ACHN renal it was 11.7 µM; in the experiment with HT29 colon, 10.8 µM; in the experiment on IGROV1 ovarian, 12.3 µM; in the experiment with LOX IMVI melanoma it was 3.94 µM; in the experiment with NCI-H226 lung, 3.54 µM. Further, the TGI in the experiment with OVCAR-4 ovarian was 12.5 µM; with SF-268 CNS it was 1.44 µM; with SK-MEL-28 melanoma it was 0.278 µM; in the experiment on SNB-75 CNS it was 0.147 µM.
For the compound `N#Cc1cccc(C(=O)c2cnn(-c3ccc(F)cc3)c2N)c1`, the GI50 in the experiment with 786-0 renal, in the experiment on ACHN renal, in the experiment with HT29 colon, with IGROV1 ovarian, with LOX IMVI melanoma and in the experiment with NCI-H226 lung was over 25 µM in each case. In addition, the GI50 is over 25 µM in the experiment with OVCAR-4 ovarian, over 25 µM in the experiment on SF-268 CNS, over 25 µM in the experiment on SK-MEL-28 melanoma and over 11.5 µM with SNB-75 CNS. Also, the TGI in the experiment on 786-0 renal, in the experiment with ACHN renal, with HT29 colon, with IGROV1 ovarian, in the experiment on LOX IMVI melanoma and with NCI-H226 lung was over 25 µM in each case. Further, the TGI was over 25 µM with OVCAR-4 ovarian, over 25 µM in the experiment on SF-268 CNS, over 25 µM in the experiment with SK-MEL-28 melanoma and over 22.4 µM in the experiment with SNB-75 CNS.
Regarding `CCN(CC)c1ccc(N=C2C=CC(=O)c3ncccc32)c(C)c1`, the TGI came out at 16.6 µM in the experiment on 786-0 renal; 12.7 µM in the experiment with ACHN renal; 29.2 µM with HT29 colon; 21 µM in the experiment on IGROV1 ovarian; 4.39 µM in the experiment with LOX IMVI melanoma; 38.8 µM with NCI-H226 lung. Moreover, the TGI in the experiment with OVCAR-4 ovarian was 4.93 µM; with SF-268 CNS, 21.3 µM; in the experiment with SK-MEL-28 melanoma it was 24.5 µM; with SNB-75 CNS, 28.9 µM.
As for `CC(C)COC(=O)N1N=NC2C3OC(CC3=O)C21` (stereo not given), the TGI was over 100 µM with 786-0 renal; over 100 µM in the experiment on ACHN renal; over 100 µM in the experiment on HT29 colon; over 31.6 µM with IGROV1 ovarian; over 100 µM with LOX IMVI melanoma; over 100 µM in the experiment with NCI-H226 lung. Also, the TGI with OVCAR-4 ovarian, in the experiment with SF-268 CNS, with SK-MEL-28 melanoma and in the experiment on SNB-75 CNS was over 100 µM in each case.
On to `O=C(Nc1ccc(Cl)cc1)c1cc2c(cc1O)[nH]c1ccccc12`, for which the GI50 in the experiment on 786-0 renal was 2.76 µM; in the experiment on ACHN renal, 3.11 µM; with HT29 colon, 5.08 µM; with IGROV1 ovarian, 4.31 µM; in the experiment with LOX IMVI melanoma, 3.48 µM; in the experiment on NCI-H226 lung, 2.52 µM. The GI50 with OVCAR-4 ovarian is 4.66 µM; with SF-268 CNS it was 3.92 µM; in the experiment with SK-MEL-28 melanoma it was 4.41 µM; with SNB-75 CNS, 3.23 µM. Moreover, the TGI with 786-0 renal worked out at 7.54 µM; in the experiment on ACHN renal, 11.1 µM; with HT29 colon, 17.9 µM; with IGROV1 ovarian it was 18.7 µM; in the experiment with LOX IMVI melanoma, 13.1 µM; with NCI-H226 lung, 9.46 µM. In addition, the TGI in the experiment on OVCAR-4 ovarian was 17.6 µM; with SF-268 CNS, 14.7 µM; in the experiment on SK-MEL-28 melanoma, 15.5 µM; with SNB-75 CNS, 8.78 µM.
As to `Nc1c(C(=O)c2cccc(-c3ccc[n+]([O-])c3)c2)cnn1-c1ccc(F)cc1F`, the GI50 with 786-0 renal, with ACHN renal, in the experiment with HT29 colon, in the experiment with IGROV1 ovarian, in the experiment with LOX IMVI melanoma and with NCI-H226 lung was over 25 µM throughout. Also, the GI50 in the experiment with OVCAR-4 ovarian, in the experiment with SF-268 CNS, in the experiment on SK-MEL-28 melanoma and in the experiment on SNB-75 CNS was over 25 µM in each case. The TGI in the experiment with 786-0 renal, in the experiment on ACHN renal, with HT29 colon, in the experiment with IGROV1 ovarian, with LOX IMVI melanoma and in the experiment with NCI-H226 lung was over 25 µM each time. Moreover, the TGI in the experiment on OVCAR-4 ovarian, in the experiment with SF-268 CNS, with SK-MEL-28 melanoma and in the experiment with SNB-75 CNS was over 25 µM in each case.
As for `Cc1cc(=O)c2cc(N=Cc3ccc([N+](=O)[O-])o3)ccc2o1`, the TGI in the experiment on 786-0 renal, in the experiment on ACHN renal, with HT29 colon, in the experiment with IGROV1 ovarian, in the experiment on LOX IMVI melanoma and with NCI-H226 lung was over 100 µM throughout. The TGI with OVCAR-4 ovarian, in the experiment on SF-268 CNS, with SK-MEL-28 melanoma and in the experiment on SNB-75 CNS was over 100 µM each time.
For `O=S1(=O)N(Cc2ccccc2)[C@@H](Cc2ccccc2)C2O[C@H]2[C@H](Cc2ccccc2)N1Cc1ccccc1` (stereo not given in full), the GI50 with 786-0 renal was 5.12 µM; with ACHN renal, 5.88 µM; in the experiment with HT29 colon, over 7.5 µM; in the experiment on IGROV1 ovarian it was 5.06 µM; in the experiment on LOX IMVI melanoma, 5.38 µM; with NCI-H226 lung, over 7.5 µM. For the same compound, the GI50 in the experiment on OVCAR-4 ovarian is over 7.5 µM; in the experiment on SF-268 CNS it was 6.08 µM; with SK-MEL-28 melanoma, over 7.5 µM; with SNB-75 CNS it was over 7.5 µM. For the same compound, the TGI with 786-0 renal, in the experiment with ACHN renal, in the experiment on HT29 colon, in the experiment on IGROV1 ovarian, in the experiment with LOX IMVI melanoma and with NCI-H226 lung was over 7.5 µM in each case. The TGI in the experiment on OVCAR-4 ovarian, in the experiment with SF-268 CNS, in the experiment with SK-MEL-28 melanoma and in the experiment on SNB-75 CNS was over 7.5 µM each time.
With `CC(=O)O[C@H]1CC[C@@]2(C)C(CC[C@]3(C)C2CC[C@]2(C)Oc4c(C)cc(O)cc4C[C@@H]23)C1(C)C` (stereo not given in full), the TGI in the experiment with 786-0 renal was 4.44 µM; in the experiment with ACHN renal, 17.5 µM; in the experiment on HT29 colon, 23.9 µM; in the experiment with IGROV1 ovarian it was 30 µM; with LOX IMVI melanoma, 23.8 µM; with NCI-H226 lung, 35.3 µM. Also, the TGI with OVCAR-4 ovarian stood at 22.2 µM; in the experiment with SF-268 CNS, 21.4 µM; in the experiment on SK-MEL-28 melanoma, 22.9 µM; with SNB-75 CNS, 8.12 µM.
